Test results taken from patent US10548313B2, “Acetyl-CoA carboxylase modulators” (Monsanto Technology LLC, priority 2013, dated 2020).
pIC50: −log10 of the molar value. “And” between values parts separate entries of the source, which are not always exact repeats. Identical values can stand only once.

Molecular target: Ustilago maydis acetyl CoA carboxylase (ACCase) (Mycosarcoma maydis (Ustilago maydis), UniProt A0A0D1DYD5)
Assay: ACCase enzymatic assay (coupled PK/LDH, NADH OD340)
Format: biochemical
Details: Table 1A; values marked a are a result of two or more experiments; read-out: ACCase Inhibitory Activity IC50
Method: Ustilago maydis acetyl CoA carboxylase (ACCase) was cloned, expressed, and purified as described (Weatherly et al, Biochem. J., 2004) and the test compounds were tested in a 96-well plate format. Primary in vitro screening consisted of obtaining dose response data at 100, 33, 10, and 1 μM inhibitor. Actives in the primary screen were re-tested to establish IC50 values.
Direct detection of the conversion of acetyl CoA to malonyl CoA by ACCase was not feasible, but during this process ATP is converted to ADP which allowed for detection through a standard reaction coupling with ADP recycling to the oxidation of NADH. Thus, ACCase activity was measured via kinetic OD340 measurements of the conversion of NADH to NAD in a coupled reaction involving the conversion of phosphoenolpyruvate (PEP) to lactate.
The complete 200 ul reaction mixture contained 52.5 mM HEPES (pH8), 2.625 mM MgCl2, 1 mM ATP, 0.525 mM DTT, 11 mM NaHCO3, 1% DMSO with or without inhibitor, 1× pyruvate kinase/lactate dehydrogenase (PK/LDH), 0.3 mM NADH, 0.5 mM PEP, and 5 μg ACCase. The reactions were incubated at 30° C. for 10 minutes and then initiated by the addition of 0.33 mM acetyl CoA. The initiated reactions were read immediately via plate reader at OD340 and kinetic readings were acquired every 20 s for 15 minutes while keeping the temperature at 30° C.
A slope of the kinetic curve was determined by using the 2 to 7 minute data which was then calculated as percent inhibition relative to the no inhibitor control.
The primary screens were conducted in duplicate and the IC50's conducted in triplicate. Averages were reported along with standard deviation calculation to generate error bars.
Each plate contained its own controls and consisted of a DMSO only control, 5-fold titration series of soraphen from 2 μM to 3.2 nM, and an ADP coupled reaction control.

Ustilago maydis acetyl CoA carboxylase (ACCase), sequence (A0A0D1DYD5 1-2185): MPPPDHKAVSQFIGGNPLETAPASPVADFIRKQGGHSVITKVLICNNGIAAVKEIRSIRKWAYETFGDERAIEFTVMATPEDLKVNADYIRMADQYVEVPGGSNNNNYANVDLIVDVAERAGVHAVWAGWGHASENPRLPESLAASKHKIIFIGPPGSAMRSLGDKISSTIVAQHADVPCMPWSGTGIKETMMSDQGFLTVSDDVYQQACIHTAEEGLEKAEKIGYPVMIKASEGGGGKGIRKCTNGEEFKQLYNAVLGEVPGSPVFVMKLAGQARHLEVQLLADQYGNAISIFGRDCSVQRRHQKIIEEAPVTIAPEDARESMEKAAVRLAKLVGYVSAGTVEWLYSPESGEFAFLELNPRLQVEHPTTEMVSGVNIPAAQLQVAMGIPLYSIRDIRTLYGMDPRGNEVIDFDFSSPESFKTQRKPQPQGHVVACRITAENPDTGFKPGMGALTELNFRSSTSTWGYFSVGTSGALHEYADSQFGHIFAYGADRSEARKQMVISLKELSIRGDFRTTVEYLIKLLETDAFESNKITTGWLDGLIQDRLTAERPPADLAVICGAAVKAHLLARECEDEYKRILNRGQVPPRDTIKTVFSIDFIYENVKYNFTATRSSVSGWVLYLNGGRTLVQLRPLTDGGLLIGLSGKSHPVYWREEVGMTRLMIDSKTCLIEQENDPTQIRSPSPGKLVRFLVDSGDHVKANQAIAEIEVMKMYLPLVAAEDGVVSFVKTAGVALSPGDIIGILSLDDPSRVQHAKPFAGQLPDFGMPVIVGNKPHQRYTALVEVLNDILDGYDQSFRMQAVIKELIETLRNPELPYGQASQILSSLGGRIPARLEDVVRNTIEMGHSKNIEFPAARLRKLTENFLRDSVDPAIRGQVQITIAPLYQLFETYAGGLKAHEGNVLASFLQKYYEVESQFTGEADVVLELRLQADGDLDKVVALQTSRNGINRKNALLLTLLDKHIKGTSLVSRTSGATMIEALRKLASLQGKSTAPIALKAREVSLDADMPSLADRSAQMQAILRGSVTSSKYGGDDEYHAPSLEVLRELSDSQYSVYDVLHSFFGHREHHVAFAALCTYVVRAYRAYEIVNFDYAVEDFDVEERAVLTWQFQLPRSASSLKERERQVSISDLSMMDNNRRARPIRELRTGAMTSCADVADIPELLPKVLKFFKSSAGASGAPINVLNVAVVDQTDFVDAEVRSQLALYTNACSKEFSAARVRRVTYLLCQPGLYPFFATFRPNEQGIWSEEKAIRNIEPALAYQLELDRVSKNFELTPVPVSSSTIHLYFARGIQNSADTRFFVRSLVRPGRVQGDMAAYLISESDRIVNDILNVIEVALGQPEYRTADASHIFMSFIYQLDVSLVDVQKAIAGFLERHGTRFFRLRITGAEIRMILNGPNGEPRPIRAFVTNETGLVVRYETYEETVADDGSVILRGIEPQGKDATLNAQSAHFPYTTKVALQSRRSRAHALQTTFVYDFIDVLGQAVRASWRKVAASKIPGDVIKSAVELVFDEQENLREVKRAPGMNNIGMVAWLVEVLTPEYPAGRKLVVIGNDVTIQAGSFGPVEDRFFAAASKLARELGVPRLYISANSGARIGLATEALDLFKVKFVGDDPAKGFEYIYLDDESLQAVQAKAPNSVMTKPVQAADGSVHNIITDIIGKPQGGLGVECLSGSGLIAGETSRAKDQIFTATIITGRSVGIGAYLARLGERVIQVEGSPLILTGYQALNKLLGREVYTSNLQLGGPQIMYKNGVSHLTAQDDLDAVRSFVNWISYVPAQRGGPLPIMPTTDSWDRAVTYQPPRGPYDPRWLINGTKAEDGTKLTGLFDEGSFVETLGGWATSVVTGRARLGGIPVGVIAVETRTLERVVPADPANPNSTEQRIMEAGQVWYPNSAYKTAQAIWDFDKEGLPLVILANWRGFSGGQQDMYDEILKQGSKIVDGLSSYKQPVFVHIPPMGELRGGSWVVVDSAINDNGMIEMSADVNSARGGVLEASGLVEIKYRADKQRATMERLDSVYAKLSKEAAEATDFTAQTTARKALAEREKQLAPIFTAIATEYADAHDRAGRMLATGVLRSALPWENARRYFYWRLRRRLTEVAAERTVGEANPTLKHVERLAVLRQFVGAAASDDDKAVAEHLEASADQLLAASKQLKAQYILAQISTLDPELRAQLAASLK

Row | Compound | pIC50
1 | CCC(Sc1nc(-c2cccs2)cc(-c2ccc(OC)cc2)c1C#N)C(=O)O (centres unmarked) [Formula Ia-xxix, 2-((3-cyano-4-(4-methoxyphenyl)-6-(thiophen-2-yl)pyridin-2-yl)thio)butanoic acid] | 6.95
2 | N#Cc1c(-c2cccs2)cc(-c2ccco2)nc1SC(C(=O)O)c1ccccc1 (centres unmarked) [Formula Ia-xxiv, 2-((3-cyano-6-(furan-2-yl)-4-(thiophen-2-yl)pyridin-2-yl)thio)-2-phenylacetic acid] | 6.02
3 | Cc1cc(C(F)(F)F)c(C#N)c(SC(C(=O)O)c2ccccc2)n1 (centres unmarked) [Formula Ia-xvi, 2-((3-cyano-6-methyl-4-(trifluoromethyl)pyridin-2-yl)thio)-2-phenylacetic acid] | 5.11
4 | N#Cc1c(-c2ccc(F)cc2)cc(-c2cccs2)nc1SC(C(=O)O)c1ccccc1 (centres unmarked) [Formula Ia-xxii, 2-((3-cyano-4-(4-fluorophenyl)-6-(thiophen-2-yl)pyridin-2-yl)thio)-2-phenylacetic acid] | 6.25
5 | 2-((3-cyano-4-(thiophen-2-yl)-5,6,7,8-tetrahydroquinolin-2-yl)oxy)-2-phenylacetic acid [Formula Ia-xxvii] | 6.60
6 | CO[C@H]1CCCC[C@@H](c2ccccc2)OC(=O)[C@@H](C)[C@@]2(O)O[C@H]([C@@H](C)[C@H](O)[C@H]2OC)[C@@H](C)/C=C/[C@H]1OC [Soraphen, reference compound] | 7.34
7 | N#Cc1c(SC(CO)c2ccccc2)nc2c(c1-c1cccs1)CCCC2 (centres unmarked) [Formula IIb-ii, 2-((2-hydroxy-1-phenylethyl)thio)-4-(thiophen-2-yl)-5,6,7,8-tetrahydroquinoline-3-carbonitrile] | 5.39
8 | COc1ccc(-c2cc(-c3cccs3)nc(SC(CO)c3ccccc3)c2C#N)cc1 (centres unmarked) [Formula IIb-i, 2-((2-hydroxy-1-phenylethyl)thio)-4-(4-methoxyphenyl)-6-(thiophen-2-yl)nicotinonitrile] | 6.20
9 | CN1CCCc2c1nc(SC(C(=O)O)c1ccccc1)c(C#N)c2-c1cccs1 (centres unmarked) [Formula Ia-vi, 2-((3-cyano-8-methyl-4-(thiophen-2-yl)-5,6,7,8-tetrahydro-1,8-naphthyridin-2-yl)thio)-2-phenylacetic acid] | 5.45
10 | N#Cc1c(SC(C(N)=O)c2ccccc2)nc2c(c1-c1cccs1)CCCC2 (centres unmarked) [Formula Ib-i, 2-((3-cyano-4-(thiophen-2-yl)-5,6,7,8-tetrahydroquinolin-2-yl)thio)-2-phenylacetamide] | 6.15
11 | COc1ccc(-c2cc(SC(C(=O)O)c3ccccc3)nc(-c3cccs3)c2)cc1 (centres unmarked) [Formula Ia-xix, 2-((4-(4-methoxyphenyl)-6-(thiophen-2-yl)pyridin-2-yl)thio)-2-phenylacetic acid] | 5.04
12 | N#Cc1c(SC(C(=O)O)c2ccccc2)nc2c(c1-c1cccs1)CCCC2 (centres unmarked) [Formula Ia-xiii, 2-((3-cyano-4-(thiophen-2-yl)-5,6,7,8-tetrahydroquinolin-2-yl)thio)-2-phenylacetic acid] | 6.56
13 | N#Cc1c(-c2ccco2)cc(-c2cccs2)nc1SC(CO)c1ccccc1 (centres unmarked) [Formula IIb-iv, 4-(furan-2-yl)-2-((2-hydroxy-1-phenylethyl)thio)-6-(thiophen-2-yl)nicotinonitrile] | 5.66
14 | COc1ccc(-c2cc(-c3ccco3)nc(SC(C(=O)O)c3ccccc3)c2C#N)cc1 (centres unmarked) [Formula Ia-xx, 2-((3-cyano-6-(furan-2-yl)-4-(4-methoxyphenyl)pyridin-2-yl)thio)-2-phenylacetic acid] | 6.46
15 | COc1ccc(-c2cc(-c3cccs3)nc(SC(C(=O)NO)c3ccccc3)c2C#N)cc1 (centres unmarked) [Formula Ib-iii, 2-((3-cyano-4-(4-methoxyphenyl)-6-(thiophen-2-yl)pyridin-2-yl)thio)-N-hydroxy-2-phenylacetamide] | 6.05
16 | COc1ccc(-c2cc(-c3cccs3)nc(SC(C(N)=O)c3ccccc3)c2C#N)cc1 (centres unmarked) [Formula Ib-ii, 2-((3-cyano-4-(4-methoxyphenyl)-6-(thiophen-2-yl)pyridin-2-yl)thio)-2-phenylacetamide] | < 4.48
17 | N#Cc1c(-c2ccco2)cc(-c2ccco2)nc1SC(C(=O)O)c1ccccc1 (centres unmarked) [Formula Ia-xxv, 2-((3-cyano-4,6-di(furan-2-yl)pyridin-2-yl)thio)-2-phenylacetic acid] | 5.39
18 | N#Cc1c(-c2ccc(Br)cc2)cc(-c2cccs2)nc1SC(C(=O)O)c1ccccc1 (centres unmarked) [Formula Ia-xxiii, 2-((4-(4-bromophenyl)-3-cyano-6-(thiophen-2-yl)pyridin-2-yl)thio)-2-phenylacetic acid] | 6.67
19 | N#Cc1c(SC(C(=O)O)c2ccccc2)nc2c(c1-c1ccccc1)CCCC2 (centres unmarked) [Formula Ia-xvii, 2-((3-cyano-4-phenyl-5,6,7,8-tetrahydroquinolin-2-yl)thio)-2-phenylacetic acid] | 6.04
20 | Cc1ccc(-c2cc(-c3cccs3)nc(SC(C(=O)O)c3ccccc3)c2C#N)cc1 (centres unmarked) [Formula Ia-xxi, 2-((3-cyano-6-(thiophen-2-yl)-4-(p-tolyl)pyridin-2-yl)thio)-2-phenylacetic acid] | 6.45
21 | COc1ccc(-c2c(C#N)c(SC(C(=O)O)c3ccccc3)nc3c2CCCC3)cc1 (centres unmarked) [Formula Ia-xxvi, 2-((3-cyano-4-(4-methoxyphenyl)-5,6,7,8-tetrahydroquinolin-2-yl)thio)-2-phenylacetic acid] | 6.25

Same assay, conditions: Table 1B; racemate vs single enantiomers; read-out: ACCase Inhibitory Activity of Racemic Mixtures and Single Enantiomers IC50

Row | Compound | pIC50
22 | COc1ccc(-c2cc(-c3cccs3)nc(SC(C(=O)O)c3ccccc3)c2C#N)cc1 (single isomer, unassigned) [Formula Ia-xiv-e1, 2-((3-cyano-4-(4-methoxyphenyl)-6-(thiophen-2-yl)pyridin-2-yl)thio)-2-phenylacetic acid] | 6.94 and 6.89
23 | COc1ccc(-c2cc(-c3cccs3)nc(SC(C(=O)O)c3ccccc3)c2C#N)cc1 (single isomer, unassigned) [Formula Ia-xiv-e2, 2-((3-cyano-4-(4-methoxyphenyl)-6-(thiophen-2-yl)pyridin-2-yl)thio)-2-phenylacetic acid] | 6.36 and 6.28
24 | N#Cc1c(-c2cccs2)cc(-c2cccs2)nc1SC(C(=O)O)c1ccccc1 (single isomer, unassigned) [Formula Ia-iii-e1, 2-((3-cyano-4,6-di(thiophen-2-yl)pyridin-2-yl)thio)-2-phenylacetic acid] | 6.26
25 | N#Cc1c(C(F)(F)F)cc(-c2cccs2)nc1SC(C(=O)O)c1ccccc1 (single isomer, unassigned) [Formula Ia-ii-e1, 2-((3-cyano-6-(thiophen-2-yl)-4-(trifluoromethyl)-pyridin-2-yl)thio)-2-phenylacetic acid] | 4.89
26 | N#Cc1c(-c2cccs2)cc(-c2cccs2)nc1SC(C(=O)O)c1ccccc1 (single isomer, unassigned) [Formula Ia-iii-e2, 2-((3-cyano-4,6-di(thiophen-2-yl)pyridin-2-yl)thio)-2-phenylacetic acid] | 5.62

Tested on: Diplodia maydis
Assay: Fungal growth inhibition assay, Diplodia maydis
Format: cell-based
Details: 2 ppm, 48 hours; read-out: D. maydis % growth inhibition at 48 hours
Method: Spores were isolated from previously sub-cultured plates of Botrytis cinerea, Phytophthora capsici, Fusarium moniliforme, Fusarium viguliforme, Collectotrichum graminicola, and Diplodia maydis. All spores were filtered and collected in a sterile glass bowl to isolate the spores from the mycelia. The isolation and sub-culture plate condition for each pathogen is described below.
Spore isolation for D. maydis: A 3-4 week old PDA (pre-mix) plate was removed from 26° C. incubator with a light/dark 12 hour cycle and the mycelia were treated with 6-7 ml of sterile distilled water, scraped into a sterile petri dish, and smashed to open the pycnidia. The spores were then collected in a sterile filter bowl containing a fluted piece of filter paper and poured into a conical tube.
After spore isolation, pathogen spores were counted on a hemocytometer to calculate the spores/ml. In 17% V8 liquid media containing 3 g/L CaCO3, isolated spores were diluted to individual concentrations based on the growth curves at 48 hours of each pathogen. The spore concentrations for each pathogen were as follows: B. cinerea—10,000 sp/ml; P. capsici—300 sp/ml; F. monliforme—500 sp/ml; F. virguliforme—500 sp/ml; C. graminicola—3,000 sp/ml; and D. maydis—3,000 sp/ml.
Chemistry stocks were dissolved in DMSO at 2.5 mg/ml. Chemistry was diluted in a 96-well stock plate in five-fold dilutions to obtain a final concentration of 50, 10, and 2 ppm in vitro. The final concentration of the positive control after the five-fold dilutions was as follows: soraphen—0.5, 0.1, and 0.02 ppm. Negative controls on each plate included 2% DMSO, water containing spores and media, and a blank for background subtraction.
In a 96-well plate the spore solution, chemistries, and controls were combined to make the final solution concentrations mentioned above. Upon addition of the chemistry, an OD600 reading was done to assess chemical precipitation. The 96-well plates were incubated in plastic tubs containing wet paper towels under the following conditions, 25° C. in the dark for P. capsici and B. cinerea or 26° C. with light/dark cycle for C. graminicola, D. maydis, F. virguliforme, F. monliforme. Plate readings were repeated at 24 and 48 hrs. Visual ratings were performed at 24 and 48 hrs to check for precipitation and confirm efficacy. Visual and OD600 ratings of the chemistry at 48 hours were compared to the 2% DMSO control to determine the percent of pathogen growth inhibition.

Row | Compound | inhibition at 2 ppm
27 | N#Cc1c(SC(C(=O)O)c2ccccc2)nc2c(c1-c1cccs1)CCCC2 (centres unmarked) [Formula Ia-xiii, 2-((3-cyano-4-(thiophen-2-yl)-5,6,7,8-tetrahydroquinolin-2-yl)thio)-2-phenylacetic acid] | 20%

Same assay, conditions: 10 ppm, 48 hours; read-out: D. maydis % growth inhibition at 48 hours

Row | Compound | inhibition at 10 ppm
28 | N#Cc1c(SC(C(=O)O)c2ccccc2)nc2c(c1-c1cccs1)CCCC2 (centres unmarked) [Formula Ia-xiii, 2-((3-cyano-4-(thiophen-2-yl)-5,6,7,8-tetrahydroquinolin-2-yl)thio)-2-phenylacetic acid] | 13%

Same assay, conditions: 50 ppm, 48 hours; read-out: D. maydis % growth inhibition at 48 hours

Row | Compound | inhibition at 50 ppm
29 | N#Cc1c(SC(C(=O)O)c2ccccc2)nc2c(c1-c1cccs1)CCCC2 (centres unmarked) [Formula Ia-xiii, 2-((3-cyano-4-(thiophen-2-yl)-5,6,7,8-tetrahydroquinolin-2-yl)thio)-2-phenylacetic acid] | 40%
